Results taken from paper PMC7336998, “Discovery of secondary sulphonamides as IDO1 inhibitors with potent antitumour effects in vivo” (Journal of Enzyme Inhibition and Medicinal Chemistry, 2020).
pIC50: −log10 of the molar value. Like-named read-outs stand apart in the source and are kept apart here. One block for each compound: values may come before it.

Key:
CT26 colon carcinoma [1] = assay: CT26 colon carcinoma xenograft in immunodeficient BALB/c nude mice; type: in vivo, mouse; conditions: BALB/c nude mice, 25 mg/kg i.p, vs vehicle
Procedure: Eight-week-old male BALB/c nude mice, weighing 18–22 g, were supplied by Model Animal Research Centre of Nanjing University (Nanjing, China). 1 × 10^7/ml and 1 × 10^6 CT26 cells (in 0.1 ml PBS) were injected subcutaneously into the right flanks of mice. After CT26 xenograft BALB/c nude mouse model was established, all mice were randomly divided into three groups (n = 8). 5d (12.5 mg/kg) were administered (i.g) every day and 5-FU (25 mg/kg) awere administered (i.p) every three days. The following experimental procedures were similar to the described above.
(§1) For immunohistochemistry staining, the sections were deparaffinized, rehydrated, and washed in 1% PBS-Tween 20, and then treated with 2% hydrogen peroxide, blocked with 3% goat serum (Life Technology, 16210–064) and incubated for 2 h at room temperature with specific primary antibodies. Then the slides were incubated with streptavidin-HRP (Shanghai Gene Company, GK500705) for 40 min, then stained with DAB (Shanghai Gene Company, GK500705) substrate and counter-stained with haematoxylin. Images were acquired by microscopy (Olympus IX51).
Then, in order to clarify whether the in vivo antitumour efficacy of compound 5d was related to the mouse immune system, we repeated the above experiment in immunodeficient nude mice. Briefly, BALB/c nude mice bearing established CT26 colon carcinoma xenograft were treated with compound 5d and 5-FU for 10 days.
Figure 8. […] 1 × 10^6 CT26 cells were transplanted subcutaneously into the armpit of immunodeficient BALB/c nude mice. Three days after transplantation, mice were randomly allocated to vehicle control or treatment groups (n = 8). Drugs were administered on days 1–9. (A) Tumour volume and mouse body weight (B) were recorded. After sacrifice, solid tumours were separated and weighed (C, D). Data represent mean ± SEM, n = 8, *p < 0.05, **p < 0.01 vs vehicle.
To verify the above conclusions, we further performed H&E and IHC staining on the nude mouse CT26 tumour tissues. […] These findings further supported the above conclusions.

CT26 colon carcinoma [2] = assay: CT26 colon carcinoma xenograft in immunocompetent BALB/c mice (tumour growth, H&E, IHC, TUNEL, spleen FACS); type: in vivo; conditions: CT26 tumour tissue, BALB/c mice, 25 mg/kg i.p
Procedure: BALB/c mice (6–8 weeks old, 18–22 g) were supplied by Model Animal Research Centre of Nanjing University (Nanjing, China). Mice were maintained under standard specific-pathogen-free (SPF) conditions (21 ± 2 °C and 12-h light: dark cycle). Animal welfare and experimental procedures were carried out strictly in accordance with the Guide for the Care and Use of Laboratory Animals (The Ministry of Science and Technology of China, 2006) and the related ethical regulations of our university. All efforts were made to minimise animals’ suffering and to reduce the number of animals used. Mouse colon cancer cells (CT26) and melanoma cells (B16F1) were cultured and collected by centrifugation (1000 rpm, 5 min) and washed twice with ice-cold PBS. Then cells were diluted to 1 × 10^7/ml and 1 × 10^6 CT26/B16F1 cells (in 0.1 ml PBS) were injected subcutaneously into the right flanks of mice. All mice formed tumours three days after injection. Then mice were randomly distributed into five groups (n = 10/8) according to tumour volumes. 5d ([…], 12.5 mg/kg) were administered (i.g) to each group respectively every day. 5-FU (25 mg/kg) and Cis-platinum (1 mg/kg) were administered (i.p) every three days. Tumour length and tumour width were measured with a Vernier calliper every three days. Tumour volumes were measured and calculated using the equation volume = a × b^2/2, where “a” is the maximal […] and “b” is maximal orthogonal width. After the administration were completed, mice were weighed, euthanized, and tumours were removed and the weight were taken.
as §1
Given that it was the most prominent inhibitor in vitro, we chose compound 5d for further pharmacodynamic evaluation in vivo. Bowel cancer is the third leading cause of cancer in the world, thus we first evaluated the efficacy of compound 5d on the growth of murine CT26 colon carcinoma xenograft model in immunocompetent BALB/c mice. Fluorouracil (5-FU) is one of the most commonly used drugs to different cancers including bowel cancer, and was used as the positive control. The CT26 tumour-bearing mice were treated with 5d (3.125, 6.25, 12.5 mg/kg, i.g, every day) or 5-FU (25 mg/kg, i.p, […]). Tumour volumes were measured every two days for 14 days.
Figure 7. Compound 5d suppressed colon cancer growth in immunocompetent mice. 1 × 10^6 CT26 cells were transplanted subcutaneously into the armpit of the BALB/c mice. Three days after transplantation, mice were randomly allocated to vehicle control or treatment groups (n = 10). Drugs were administered on days 1–14. Tumour volume (A) and mice body weight (B) were recorded. After sacrifice, solid tumours were separated and weighed (C, D). Data represent mean ± SEM, n = 10, *p < 0.05, **p < 0.01 vs vehicle.
In order to further observe morphological changes in tumour tissues after administration of compound 5d, the tumour tissue sections obtained from the BALB/c mice bearing CT26 colorectal tumours were stained with haematoxylin-eosin (H&E) to highlight different tissue structures, such as the nucleus and cytoplasm.
Then, to understand the mechanism of tumour cell death, we detected the level of proliferating cell nuclear antigen (PCNA) protein and tumour cell apoptosis by immunohistochemistry (IHC) and terminal deoxynucleotidyl transferase dUTP nick end labelling (TUNEL) experiments, respectively. […]

IDO1 [3] = target: T1, IDO1 (Homo sapiens, UniProt P14902); assay: HeLa cell-based IDO1/kynurenine assay; conditions: for pIC50: HeLa cells, IFN-γ induced IDO1, kynurenine readout; for inhibition at 30 µM: percentage inhibition at 30 μM, IFN-γ-treated HeLa cells, kynurenine in media; for potency increase as compared with the hit BS-1: ratio of HeLa IC50 values
T1 construct: a human cervical cancer cell line HeLa that endogenously expresses IDO1 upon IFN-γ treatment; endogenous in cells; host or cells: HeLa cells treated with human IFN-γ
T1 sequence (P14902 whole entry): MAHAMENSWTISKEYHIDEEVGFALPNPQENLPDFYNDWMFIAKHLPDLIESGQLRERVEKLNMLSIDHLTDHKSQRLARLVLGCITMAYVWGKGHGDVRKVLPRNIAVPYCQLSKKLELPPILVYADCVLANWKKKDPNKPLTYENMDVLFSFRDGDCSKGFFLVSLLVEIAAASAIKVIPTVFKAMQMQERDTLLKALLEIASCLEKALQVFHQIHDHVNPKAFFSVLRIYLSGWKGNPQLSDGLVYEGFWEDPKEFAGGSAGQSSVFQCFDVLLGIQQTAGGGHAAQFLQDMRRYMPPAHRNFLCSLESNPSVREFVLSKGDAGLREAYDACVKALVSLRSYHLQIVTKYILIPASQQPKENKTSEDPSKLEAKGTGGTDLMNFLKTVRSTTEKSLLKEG
Procedure: (§2) The main bioassays performed in the study, including HeLa cell-based IDO1/kynurenine assay, Western blot analysis, T cell proliferation and Treg cell differentiation experiments, were carried out as described previously.
It is well known that IDO1 is broadly expressed in human cancers and is induced by pro-inflammatory cytokines, such as interferon gamma (IFN-γ) and tumour necrosis factor alpha (TNF-α)[41]. Here we utilised a human cervical cancer cell line HeLa that endogenously expresses IDO1 upon IFN-γ treatment to evaluate the IDO1 inhibitory activity of the synthesised compounds by measuring kynurenine secreted into the media. […] Thus, we also employed this cellular assay to detect false positive IDO1 inhibitors and cytotoxic compounds by measuring HeLa cell viability. Clinical candidate navoximod was used as an assay control.

IDO1 protein expression = assay: Western blot of IDO1 protein expression in IFN-γ-treated HeLa cells; type: cell-based, human; conditions: HeLa cells, IFN-γ 100 ng/mL 24 h, then compounds at their IC50 concentrations for 24 h
Procedure: as §2
To exclude the possibility that these secondary sulphonamides inhibit IDO1 activity by down-regulating IDO1 expression, we utilised Western blot to measure the expression of IDO1 protein in HeLa cells treated with different compounds.
Figure 3. […] (B) The greyscale scanning statistical results of A. (C) HeLa cells were incubated with compound 5d (3, 10, 30 μM) for 24 h. (D) The greyscale scanning statistical results of C. (E) HeLa cells were incubated with compound 5d (3, 10, 30 μM) for 48 h. (F) The greyscale scanning statistical results of E. Data are presented as means ± SEM (n = 3).

HeLa cells = assay: HeLa cell viability by MTT at the end of the IDO1/kynurenine assay; type: cell-based, human; conditions: under the experimental conditions of the IDO1 assay
Description: It is well known that IDO1 is broadly expressed in human cancers and is induced by pro-inflammatory cytokines, such as interferon gamma (IFN-γ) and tumour necrosis factor alpha (TNF-α)[41]. Here we utilised a human cervical cancer cell line HeLa that endogenously expresses IDO1 upon IFN-γ treatment to evaluate the IDO1 inhibitory activity of the synthesised compounds by measuring kynurenine secreted into the media. This cell-based assay, as a rapid and simple method for determination IDO1/kynurenine, is closely related to the potency of the enzyme assay and has been widely used to identify various IDO1 inhibitors[19]^,[23]^,[29]^,[42]. In addition, cytotoxic compounds can reduce cell viability, which will decrease the IDO1 levels and then lower the conversion of tryptophan to kynurenine. Thus, we also employed this cellular assay to detect false positive IDO1 inhibitors and cytotoxic compounds by measuring HeLa cell viability. Clinical candidate navoximod was used as an assay control.
Furthermore, the viability of HeLa cells was evaluated by the MTT method at the end of the assay.

[4] = system: naïve CD4+ T cells co-cultured with B16F1 cells; assay: FoxP3+ Treg cell differentiation in B16F1-T cell co-culture (flow cytometry); type: cell-based, mouse; conditions: for FoxP3+ Treg cell differentiation (in words): Con A, 48 h
Procedure: as §2
Besides causing local tryptophan depletion, high IDO1 expression can also accumulate metabolites of kynurenine pathway. The elevated metabolites can not only induce effector T cell death directly through their cytotoxicity, but also promote the differentiation of naïve CD4^+ T cells into CD4^+ FoxP3^+ Treg cells by activating the AHR pathway. As a highly immunosuppressive subset of CD4^+ T cells, FoxP3^+ Treg cells are critical to the maintenance of immune homeostasis and are involved in tumour immune escape, thereby contributing to tumour development and progression. Therefore, we also utilised co-culture of B16F1 cells with naïve CD4^+ T cells to test whether the synthesised compounds could suppress IDO1 mediated Treg cell differentiation.
Figure 5. Compounds 5d and 8 g inhibited Treg cell differentiation in the cell co-culture system. (A) After co-cultured with B16F1 cells, T cells were collected. Surface staining was performed with CD4^+ FTTC and CD25^+ PE for 30 min at 4 °C. The cells were fixed and permeabilized with fixation buffer and permeabilization wash buffer. The intracellular staining was performed with FoxP3^+ APC for 20 min. The cells were then analysed by flow cytometry analysis. (B) Statistical analysis of result A. Data are represented as ± SEM (n = 3). *p < 0.05, **p < 0.01 vs T + B16F1. TEXT PRINTED IN THE PICTURE: (A) Navoximod: 8.1% (T + B16F1; 1.5 μM) | (A) 8g: 7.8% (T + B16F1; 18 μM) | (A) 5d: 2.1% (T + B16F1; 18 μM)

[5] = system: naïve CD4+ T cells co-cultured with B16F1 melanoma cells; assay: T cell proliferation in B16F1-T cell co-culture (MTT); type: cell-based, mouse
Procedure: as §2
T lymphocytes are exceedingly sensitive to low tryptophan levels. Overactivation of the kynurenine pathway by high IDO1 expression leads to local tryptophan depletion, which can suppress T cell proliferation by activating the GCN2 kinase pathway and eventually result in T cell anergy. Here, to determine whether secondary sulphonamides could rescue IDO1-mediated blockade of T cell proliferation, we used a co-culture of IDO1-expressing B16F1 melanoma cells with naïve CD4^+ T cells to mimic the tumour microenvironment. Given that melanoma is a highly immunogenic tumour and IDO1 constitutively expresses in melanoma cells, B16F1 murine melanoma cell lines that express IDO1 were then used to co-culture with T cells. Naïve CD4^+ T cells were isolated from spleens of C57BL/6 mice.
Figure 4. Compounds 5d and 8 g could promote the proliferation of T cells. Based on the B16F1-T cell co-culture system, use MTT assay to test T cells proliferation. The Navoximod and compounds were added to the system at the concentration of 1.5 and 18 μM. Data represent mean ± SEM (n = 3).

IDO1 [6] = target: T1, IDO1; set-up: method as in earlier work; conditions: HeLa cell assay; earlier series of N-acetyl secondary sulphonamides; cited from earlier work

Structure (SMILES): O=c1[nH]cc(F)c(=O)[nH]1 [5-FU, Fluorouracil, reference compound]
tumour growth (CT26 colon carcinoma [1]): significantly suppressed tumour growth | expression of PCNA protein (IHC) (CT26 colon carcinoma [2]): significantly reduced | number of tumour cells (H&E staining) (CT26 colon carcinoma [2]): significantly reduced | tumour cell apoptosis (TUNEL) (CT26 colon carcinoma [2]): apoptosis increased

Structure (SMILES): C=CC(=O)Nc1ccc(S(=O)(=O)NCc2cccc(Br)c2)cc1 [5l, N-(4-(N-(3-Bromobenzyl)sulfamoyl)phenyl)acrylamide]
pIC50 (IDO1 [3]): 5.18 | inhibition at 30 µM (IDO1 [3]): 89.1% | potency increase as compared with the hit BS-1 (IDO1 [3]): 7.4 fold | expression of IDO1 protein (IDO1 protein expression): did not influence IDO1 expression | melting point: 156 to 158 °C | HeLa cell viability (HeLa cells): without affecting the cell viability

Structure (SMILES): O[C@H](C[C@H]1c2c(F)cccc2-c2cncn21)[C@H]1CC[C@H](O)CC1 [Navoximod, (1R,4r)-4-((R)-2-((S)-6-fluoro-5H-imidazo[5,1-a]isoindol-5-yl)-1-hydroxyethyl)cyclohexan-1-ol, reference compound]
FoxP3+ Treg cells (flow cytometry) ([4]; 1.5 μM): 8.1% | FoxP3+ Treg cell differentiation (in words) ([4]; 1.5 μM): significantly reduce FoxP3^+ Treg cell differentiation | T cell proliferation ([5]; 1.5 μM): significant augmentation on T cell activity

More lines, main results first:

pIC50 (IDO1 [3]): 5.42 | inhibition at 30 µM (IDO1 [3]): 93.2% | potency increase as compared with the hit BS-1 (IDO1 [3]): 13.1 fold
Structure (SMILES): C=CC(=O)Nc1ccc(S(=O)(=O)Nc2ccc(F)c(Cl)c2)cc1 [8g, N-(4-(N-(3-Chloro-4-fluorophenyl)sulfamoyl)phenyl)acrylamide]
expression of IDO1 protein (IDO1 protein expression): did not influence IDO1 expression | FoxP3+ Treg cells (flow cytometry) ([4]; 18 μM): 7.8% | FoxP3+ Treg cell differentiation (in words) ([4]; 18 μM): significantly reduce FoxP3^+ Treg cell differentiation | T cell proliferation ([5]; 18 μM): significant augmentation on T cell activity | HeLa cell viability (HeLa cells): without affecting the cell viability

potency increase as compared with the hit BS-1 (IDO1 [3]): 8.4 fold
Structure (SMILES): COc1ccc(CNS(=O)(=O)c2ccc(NC(C)=O)cc2)cc1 [N-(4-(N-(4-methoxybenzyl)sulfamoyl)phenyl)acetamide, reference compound]
pIC50 (IDO1 [6]): 5.23
